The values below come from ChEMBL document CHEMBL5226303, “GPR120/FFAR4 Pharmacology: Focus on Agonists in Type 2 Diabetes Mellitus Drug Discovery” (J Med Chem, 2021).

SMILES strings stand for the structures.

Usually IC50 stands for the point on the concentration scale where inhibition reaches its midpoint. Low values mean higher potency, high ones lower potency. By EC50 is commonly meant the concentration at which the effect is half-maximal. By pEC50 is commonly meant the negative decadic logarithm of the EC50, by convention in mol/L. Read a high pEC50 as a low EC50.

For one assay, the system named is DU-145. Description: Antiproliferative activity against LPA-induced human DU-145 cells. In kind it is functional, cell-based.
Assay [1] has as its target T1, Free fatty acid receptor 4 (Homo sapiens, UniProt Q5NUL3).
T1 sequence (Q5NUL3 whole entry): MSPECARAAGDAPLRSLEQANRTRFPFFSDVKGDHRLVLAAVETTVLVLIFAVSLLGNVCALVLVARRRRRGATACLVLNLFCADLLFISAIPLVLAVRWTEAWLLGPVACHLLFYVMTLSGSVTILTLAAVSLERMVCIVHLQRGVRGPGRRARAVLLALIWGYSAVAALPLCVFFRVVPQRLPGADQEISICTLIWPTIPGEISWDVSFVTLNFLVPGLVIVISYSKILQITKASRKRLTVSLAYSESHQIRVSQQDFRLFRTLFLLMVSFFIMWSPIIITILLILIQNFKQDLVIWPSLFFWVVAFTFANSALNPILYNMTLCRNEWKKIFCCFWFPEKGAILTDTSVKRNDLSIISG
Description: Agonist activity at human GPR120 expressed in CHO-K1 cells by beta-arrestin assay. It counts as cell-based.

Assay [2] can be described thus: Agonist activity at FFA receptor (unknown origin). Further details: species or system Homo sapiens.
The target of assay [3] is T1, Free fatty acid receptor 4. Description: Agonist activity at human GPR120 expressed in HEK293 cells by beta-arrestin assay. In kind it is cell-based.
Assay [4] concerns the target T1, Free fatty acid receptor 4. Put plainly: Agonist activity at human GPR120 expressed in HEK293 cells assessed as calcium accumulation. In kind it is cell-based.

In the assay with DU-145, `CC(C)=CCC/C(C)=C/CC/C(C)=C/Cc1c(O)cc(C)c(C(=O)O)c1O` [GRIFOLIC ACID] had an IC50 of 5700 nM.
`CC/C=C\C/C=C\C/C=C\C/C=C\C/C=C\C/C=C\CCC(=O)O` [DOCONEXENT]: the IC50 with DU-145 came out at 73 nM.
For the compound `C#Cc1cc(Oc2cccnc2)cc(N2Cc3ccccc3S2(=O)=O)c1`, the EC50 in assay [1] worked out at 5.2 nM.
Take `CCCCC/C=C\C/C=C\CCCCCCCC(=O)O` [LINOLEIC ACID]: in assay [2], the pEC50 was determined as 5.16.
For `OCCCc1c(F)cc(OCc2c(-c3ccc(Cl)cc3)csc2C(F)(F)F)cc1F`, the results for the EC50 in assay [3] and in assay [4] were 125 nM and 165 nM, respectively.
